Changes are numbered by the printed parent chain. Entries after “also recorded” stand apart in the source; their conditions may differ. Counter-ions that a name gives are not always drawn. Like-named read-outs stand apart in the source and are kept apart here.
Legend:
[1] = molecular target: T1, human TAS2R7 (Homo sapiens, UniProt Q9NYW3); test: Calcium mobilization assay, HEK293 cells transfected with TAS2R7 and Gα16-gust44; type: cell-based; details: for Activation of TAS2R7 by metal ions: 20 mM, Figure 1A,B; for Dose dependence of TAS2R7 response: Figure 2A,C; for Compounds triggering detectable responses in cells transfected with TAS2R7: at the concentrations reported previously (Meyerhof et al. 2010), Figure 4A
T1 construct: first 45 residues of rat somatostatin receptor 3 (signal peptide) (N); expressed in transfected cells; host or cells: HEK293 (PEAKrapid, ATCC CRL-2828)
T1 sequence (Q9NYW3 1-318): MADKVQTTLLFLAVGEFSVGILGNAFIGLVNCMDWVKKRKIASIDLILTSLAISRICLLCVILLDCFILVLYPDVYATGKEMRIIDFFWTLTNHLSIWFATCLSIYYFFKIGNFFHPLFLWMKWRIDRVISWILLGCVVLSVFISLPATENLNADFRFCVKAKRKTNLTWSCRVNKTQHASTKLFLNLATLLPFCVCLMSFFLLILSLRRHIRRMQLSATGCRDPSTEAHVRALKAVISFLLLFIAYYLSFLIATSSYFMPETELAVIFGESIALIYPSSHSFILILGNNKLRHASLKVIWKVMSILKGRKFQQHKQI
Excerpt: (§1) The coding sequences of human TAS2Rs were amplified from human genomic DNA, then subcloned into pcDNA3.1(+) vector, with the herpes simplex virus glycoprotein D epitope (HSV) at the C-terminal and a signal peptide consisting of the first 45 amino acid residues of the rat somatostatin receptor 3 at the N-terminal, essentially as described previously ([Bufe et al. 2002]). Point mutations in human TAS2R7 (NCBI Reference Sequence: NP_076408.1) were constructed by site-directed mutagenesis. All the constructs were confirmed by Sanger sequencing.
All tested compounds were purchased from Sigma–Aldrich, with the exception of diphenidol hydrochloride (Reagent World) and L-praziquantel (manufactured by Shaoxing Pharmaceutical Co. Ltd.). All the metal ions were dissolved in the assay solution (130 mM NaCl, 5 mM KCl, 2 mM CaCl2, and 10 mM glucose; pH 7.4) unless specified otherwise, and the bitter compounds (diphenidol, quinine, and chlorphenamine) were dissolved first in dimethyl sulfoxide (DMSO) as stock solution and then diluted with the assay solution; the final DMSO concentration was below 0.5%, with the exception of cromolyn, which is dissolved in the assay solution directly. For our initial screening (Table 1), Hanks’ balanced salt solution (HBSS, ThermoFisher, catalog no. 14025134) supplemented with 10 mM hydroxyethyl piperazineethanesulfonic acid (HEPES) were used as the assay buffer.
(§2) Human embryonic kidney 293 (PEAKrapid, ATCC # CRL-2828) cells were cultured in Opti-MEM medium with 4% fetal bovine serum. One day before transfection, cells were seeded on a 96-well plate at a density of 25 000 per well. Cells were then transiently transfected with a TAS2R construct (0.1 µg/well) along with a G protein Gα16-gust44 (0.1 µg/well) construct by Lipofectamine 2000 (0.5 µl/well). For controls, only Gα16-gust44 was used (mock transfection). Twenty-four hours after transfection, cells were washed with HBSS including 10 mM HEPES and loaded with Fluo-4 in the dark for 1 h. After incubation, cells were washed 2 times with HBSS (including 10 mM HEPES), incubated in the dark for another 30 min, and then washed with assay solution once more before running the assay using a FlexStation III reader. Relative fluorescence units (excitation at 494 nm, emission at 516 nm, and auto cutoff at 515 nm) were read every 2 s for 2 min. Calcium mobilization traces were recorded.
(§3) Calcium mobilization traces were raw data obtained from single wells. Changes in fluorescence (ΔF) were calculated as the peak fluorescence minus baseline fluorescence ([Lei et al. 2015]). The calcium mobilization was quantified as the percentage of change (ΔF) relative to baseline (F). […] Calcium mobilization traces and bar graphs along with dose-dependent plots were all generated by GraphPad Prism 7. Analysis of variance with Dunnett’s multiple comparisons test was used for statistical analysis. *P < 0.05.
To determine whether a TAS2R responds to metal ions, we expressed all 25 human bitter receptors individually in HEK293 cells (PEAKrapid) by transient transfection of a TAS2R along with a coupling chimeric G protein, Gα16-gust44. All TAS2Rs were cloned from human genomic DNA. Activation of human TAS2Rs was monitored by the calcium mobilization assay ([Lei et al. 2015]). We tested these receptors individually for their responses toward metal ions: ZnSO4 (20 mM), CuSO4 (20 mM), and MgCl2 (20 mM) (Table 1, Figure 1A). […] To determine the breadth of tuning of TAS2R7 toward metal ions, we also tested MnCl2 (20 mM), Al2(SO4)3 ([…]), and CaCl2 (20 mM) (Figure 1B).

[2] = molecular target: T2, human TAS2R14 (Homo sapiens, UniProt Q9NYV8); test: Calcium mobilization assay, HEK293 cells transfected with TAS2R14 and Gα16-gust44; type: cell-based; details: 0.5 mM; Figure 3B
T2 construct: first 45 residues of rat somatostatin receptor 3 (signal peptide) (N); expressed in transfected cells; host or cells: HEK293 (PEAKrapid, ATCC CRL-2828)
T2 sequence (Q9NYV8 1-317): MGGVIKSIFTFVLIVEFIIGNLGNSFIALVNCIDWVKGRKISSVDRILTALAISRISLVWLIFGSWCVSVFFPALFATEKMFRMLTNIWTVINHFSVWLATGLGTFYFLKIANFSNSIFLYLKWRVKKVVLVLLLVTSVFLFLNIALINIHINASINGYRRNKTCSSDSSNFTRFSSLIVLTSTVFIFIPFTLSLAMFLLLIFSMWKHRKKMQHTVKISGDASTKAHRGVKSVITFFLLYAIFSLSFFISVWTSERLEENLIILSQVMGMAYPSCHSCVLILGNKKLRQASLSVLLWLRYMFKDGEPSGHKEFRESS
Excerpt: as §1, with “sequencing. […]” for “sequencing.”
(§4) Human embryonic kidney 293 (PEAKrapid, ATCC # CRL-2828) cells were cultured in Opti-MEM medium with 4% fetal bovine serum. […] After incubation, cells were washed 2 times with HBSS (including 10 mM HEPES), incubated in the dark for another 30 min, and then washed with assay solution once more before running the assay using a FlexStation III reader. Relative fluorescence units (excitation at 494 nm, emission at 516 nm, and auto cutoff at 515 nm) were read every 2 s for 2 min. Calcium mobilization traces were recorded.
(§5) Calcium mobilization traces were raw data obtained from single wells. Changes in fluorescence (ΔF) were calculated as the peak fluorescence minus baseline fluorescence ([Lei et al. 2015]). The calcium mobilization was quantified as the percentage of change (ΔF) relative to baseline (F). […]

[3] = molecular target: T3, human TAS2R7 H94^3.37F mutant (Homo sapiens, UniProt Q9NYW3, H94F); test: Calcium mobilization assay, TAS2R7 mutant H94F; type: cell-based; details: 20 mM metal ions except 0.16 mM Al2(SO4)3; Figure 6B
T3 construct: signal peptide: first 45 amino acid residues of rat somatostatin receptor 3 (N); expressed in transfected cells; host or cells: HEK293 PEAKrapid (ATCC CRL-2828), transient, co-transfected with Gα16-gust44
T3 sequence (Q9NYW3 1-318 H94F): T1 sequence (Q9NYW3 1-318) with H94F
Excerpt: as §1, §4, §5

[4] = molecular target: T4, human TAS2R7 E264^7.32K mutant (Homo sapiens, UniProt Q9NYW3, E264K); test: Calcium mobilization assay, TAS2R7 mutant E264K; type: cell-based; details: 20 mM metal ions except 0.16 mM Al2(SO4)3; cromolyn 10 mM; Figure 6B
T4 construct: signal peptide: first 45 amino acid residues of rat somatostatin receptor 3 (N); expressed in transfected cells; host or cells: HEK293 PEAKrapid (ATCC CRL-2828), transient, co-transfected with Gα16-gust44
T4 sequence (Q9NYW3 1-318 E264K): T1 sequence (Q9NYW3 1-318) with E264K
Excerpt: as §1, §2, §3
To assess the importance of these residues, we performed site-directed mutagenesis. We mutated the negatively charged residues E16^1.42, E264^7.32, and E271^7.39 to Q (glutamine), K (lysine), or L (leucine). The facing H94^3.37 was mutated to F (phenylalanine). HEK293 cells that expressed mutant receptors along with Gα16-gust44 were examined for their responses to metal ions (20 mM for all except 0.16 mM Al2(SO4)3) and cromolyn (10 mM, as a positive control) to assess receptor’s function. To determine the expression level of each receptor, we stained the wild-type or mutant receptor-transfected cells using an anti-HSV antibody since all the receptors are tagged with HSV at c-terminal. […]

[5] = molecular target: T5, human TAS2R7 E264^7.32L mutant (Homo sapiens, UniProt Q9NYW3, E264L); test: Calcium mobilization assay, TAS2R7 mutant E264L; type: cell-based; details: 20 mM metal ions except 0.16 mM Al2(SO4)3; cromolyn 10 mM; Figure 6B
T5 construct: signal peptide: first 45 amino acid residues of rat somatostatin receptor 3 (N); expressed in transfected cells; host or cells: HEK293 PEAKrapid (ATCC CRL-2828), transient, co-transfected with Gα16-gust44
T5 sequence (Q9NYW3 1-318 E264L): T1 sequence (Q9NYW3 1-318) with E264L
Excerpt: as §1, §2
as §3, with “0.05. […]” for “0.05.”

[6] = molecular target: T1, human TAS2R7; design: method as in Meyerhof et al. 2010; details: ref Meyerhof et al. 2010; cited from earlier work
[7] = assay solution containing calcium, Figures 3A, 4C, read-out: EC50, TAS2R7, in the presence of calcium
[8] = assay solution containing no calcium, Figures 3A, 4C, read-out: EC50, TAS2R7, in the absence of calcium
[9] = assay solution with 2 mM CaCl2, Figure 2, read-out: EC50, TAS2R7 concentration-response
[10] = Supplementary Figure S2, read-out: EC50, TAS2R7, comparison of anions

Dose dependence of TAS2R7 response [1]	EC50 [1, 7] [mM]	EC50 [1, 8] [mM]	EC50 [1, 9] [mM]	Compound	further results
dose-dependent responses	7.56	4.7	5.27 ± 0.5	[Ca+2].[Cl-].[Cl-] [CaCl2]	Activation of TAS2R7 by metal ions [1]: activated the receptor
dose-dependent responses	1.89	0.85	1.04 ± 0.36	O=S(=O)([O-])[O-].[Cu+2] [CuSO4]	–
–	–	–	–	[Cl-].[K+] [KCl, potassium chloride]	Activation of TAS2R7 by monovalent salt ([1]; any concentration tested, Figures 1C,D and 2A): did not activate the receptor; also recorded: not responsive
–	–	–	–	O=C(C1CCCCC1)N1CC(=O)N2CCc3ccccc3[C@@H]2C1 [L-praziquantel]	Response amplitude of TAS2R14 in the absence versus presence of calcium [2]: reduced response amplitude
dose-dependent responses	7.84	5.78	6.07 ± 1.07	[Cl-].[Cl-].[Mg+2] [MgCl2]	Maximal response of TAS2R7 in the absence versus presence of calcium ([1]; assay solution without calcium compared with calcium): smaller
dose-dependent responses	2.24	7.19	6.59 ± 1.73	[Cl][Mn][Cl] [MnCl2]	Activation of TAS2R7 by metal ions [1]: activated the receptor; Response of H94F mutant receptor [3]: diminished responses; Response of E264K mutant receptor [4]: still responsive
–	–	–	–	[Cl-].[Cl-].[Zn+2] [ZnCl2]	EC50 [1, 10]: 3.42 mM
dose-dependent responses	2.41	3.49	–	O=S(=O)([O-])[O-].[Zn+2] [ZnSO4]	EC50 [1, 10]: 3.21 mM; Response of E264L mutant receptor [5]: responded; Response of E264K mutant receptor [4]: specific loss of responses
–	–	–	–	CN(C)CCC(c1ccc(Cl)cc1)c1ccccn1 (stereo not drawn) [chlorphenamine, reference compound]	TAS2R7 reported to respond to bitter compounds [6]: respond; Compounds triggering detectable responses in cells transfected with TAS2R7 [1]: none
–	–	–	–	OC(CCCN1CCCCC1)(c1ccccc1)c1ccccc1 [diphenidol, diphenidol hydrochloride, reference compound]	TAS2R7 reported to respond to bitter compounds [6]: respond; Compounds triggering detectable responses in cells transfected with TAS2R7 [1]: none
–	–	–	–	C=C[C@H]1C[N@@]2CC[C@H]1C[C@H]2[C@H](O)c1ccnc2ccc(OC)cc12 [quinine, reference compound]	TAS2R7 reported to respond to bitter compounds [6]: respond; Compounds triggering detectable responses in cells transfected with TAS2R7 [1]: none
